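Where inhibition never reached the appropriate level, the endpoint shown equals the highest concentration tested. Otherwise, values were interpolated linearly from a five-concentration, 48-hour dose response in 96-well plates. GI50 is the concentration that inhibits growth by half. TGI denotes the concentration required for complete inhibition of growth.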
Experiments:
Test in all cases: NCI tumour cell line growth inhibition, 48 h
[1] = test system: M19-MEL melanoma
[2] = test system: HT29 colon
[3] = test system: SF-268 CNS
[4] = test system: K-562 leukemia
[5] = test system: SN12K1 renal
[6] = test system: OVCAR-4 ovarian
[7] = test system: HCC-2998 colon
[8] = test system: NCI-H23 lung
[9] = test system: RXF 393 renal
[10] = test system: SK-MEL-28 melanoma
[11] = test system: UO-31 renal
[12] = test system: 786-0 renal
[13] = test system: A549 NSCLC
[14] = test system: KM12 colon
[15] = test system: MDA-N
[16] = test system: ACHN renal
[17] = test system: LXFL 529 NSCLC
[18] = test system: SW-620 colon
[19] = test system: HS 578T breast
[20] = test system: HOP-92 NSCLC
[21] = test system: A498 renal
[22] = test system: RPMI-8226 leukemia
[23] = test system: CCRF-CEM leukemia
[24] = test system: HOP-62 NSCLC
[25] = test system: SNB-78 CNS
[26] = test system: OVCAR-8 ovarian
[27] = test system: LOX IMVI melanoma
[28] = test system: SR leukemia
[29] = test system: HOP-18 NSCLC
[30] = test system: MDA-MB-435
[31] = test system: UACC-62 melanoma
[32] = test system: SN12C renal
[33] = test system: NCI-H522 lung
[34] = test system: UACC-257 melanoma
[35] = test system: MALME-3M melanoma
[36] = test system: BT-549 breast
[37] = test system: DU-145 prostate
[38] = test system: DMS 273 small cell lung
[39] = test system: PC-3 prostate
[40] = test system: T-47D breast
[41] = test system: TK-10 renal
[42] = test system: DLD-1 colon
[43] = test system: SNB-75 CNS
[44] = test system: MDA-MB-231 breast
[45] = test system: KM20L2 colon
[46] = test system: NCI-H460 lung
[47] = test system: MCF7 breast
[48] = test system: P388/ADR leukemia
[49] = test system: NCI-H226 lung
[50] = test system: SF-539 CNS
[51] = test system: SF-295 CNS
[52] = test system: HCT-116 colon
[53] = test system: SK-OV-3 ovarian
[54] = test system: HL-60(TB) leukemia
[55] = test system: CAKI-1 renal
[56] = test system: P388 leukemia
[57] = test system: SK-MEL-5 melanoma
[58] = test system: OVCAR-5 ovarian
[59] = test system: XF 498 CNS
[60] = test system: OVCAR-3 ovarian
[61] = test system: M14 melanoma
[62] = test system: SNB-19 CNS
[63] = test system: COLO 205 colon
[64] = test system: SK-MEL-2 melanoma
[65] = test system: EKVX NSCLC
[66] = test system: HCT-15 colon
[67] = test system: NCI/ADR-RES ovarian
[68] = test system: U251 CNS
[69] = test system: IGROV1 ovarian
[70] = test system: MOLT-4 leukemia
[71] = test system: DMS 114 small cell lung
[72] = test system: RXF-631 renal

Molecule `NC(=O)NO` has a TGI [1] of over 2.45 mM, a TGI [2] of over 2.44 mM and a TGI [3] of 2340 µM. For the same molecule, the TGI [4] was over 2260 µM, the TGI [5] was 1.89 mM and the TGI [6] was over 2.5 mM. It also gave a TGI [7] of 1810 µM, a TGI [8] of 2050 µM and a TGI [9] of 1880 µM. For the same molecule, the TGI [10] was over 2.5 mM, the TGI [11] was 1.87 mM and the TGI [12] was 1.77 mM. It also gave a TGI [13] of 2.34 mM, a TGI [14] of 2.5 mM and a TGI [15] of over 2.5 mM. The TGI [16] was 2060 µM, the TGI [17] was over 2320 µM and the TGI [18] was over 2.5 mM. It also gave a TGI [19] of over 1.22 mM, a TGI [20] of 2330 µM and a TGI [21] of 1.99 mM. The TGI [22] was 2.26 mM, the TGI [23] was 1060 µM and the TGI [24] was 2220 µM. The TGI [25] was over 2500 µM, the TGI [26] was over 2460 µM and the TGI [27] was over 2.43 mM. It also gave a TGI [28] of 1620 µM, a GI50 [29] of 1.13 mM and a TGI [29] of 1.94 mM. The TGI [30] was over 2.5 mM, the TGI [31] was 1.56 mM and the TGI [32] was 2.39 mM. It also gave a TGI [33] of 2270 µM, a TGI [34] of over 2500 µM and a TGI [35] of 2.48 mM. For the same molecule, the TGI [36] was over 2.5 mM, the TGI [37] was over 2.5 mM and the TGI [38] was 1360 µM. For the same molecule, the TGI [39] was over 2.5 mM, the TGI [40] was over 2.5 mM and the TGI [41] was over 2500 µM. It also gave a TGI [42] of over 2500 µM, a TGI [43] of 2310 µM and a TGI [44] of over 1.41 mM. For the same molecule, the TGI [45] was 1700 µM, the TGI [46] was 2040 µM and the TGI [47] was over 2.46 mM. It also gave a TGI [48] of 502 µM, a TGI [49] of 2.12 mM and a TGI [50] of 1440 µM. For the same molecule, the TGI [51] was 1950 µM, the TGI [52] was over 2500 µM and the TGI [53] was over 2500 µM. The GI50 [54] was 21 µM, the TGI [54] was 182 µM and the TGI [55] was 1.72 mM. It also gave a TGI [56] of 548 µM, a TGI [57] of 2230 µM and a TGI [58] of 1.99 mM. The TGI [59] was 1850 µM, the TGI [60] was 2500 µM and the TGI [61] was 1950 µM. For the same molecule, the TGI [62] was over 2340 µM, the TGI [63] was over 2.5 mM and the TGI [64] was over 2.45 mM. For the same molecule, the TGI [65] was over 2.46 mM, the TGI [66] was 2.36 mM and the TGI [67] was 2.4 mM. The TGI [68] was 2330 µM, the TGI [69] was over 2020 µM and the TGI [70] was 2.1 mM.
`Nc1c(Br)c(=O)[nH]c(=O)n1COCCO` was tested, and the TGI [1] was over 0.1 mM, the TGI [2] was over 0.1 mM and the TGI [3] was over 100 µM. The TGI [4] was over 100 µM, the TGI [6] was over 0.1 mM and the TGI [7] was over 100 µM. The TGI [8] was over 100 µM, the TGI [9] was over 100 µM and the TGI [10] was over 0.1 mM. For the same molecule, the TGI [11] was over 0.1 mM, the TGI [12] was over 0.1 mM and the TGI [13] was over 0.1 mM. For the same molecule, the TGI [14] was over 0.1 mM, the TGI [71] was over 100 µM and the TGI [16] was over 100 µM. It also gave a TGI [17] of over 100 µM, a TGI [18] of over 0.1 mM and a TGI [20] of over 100 µM. It also gave a TGI [23] of over 100 µM, a TGI [24] of over 100 µM and a TGI [25] of over 100 µM. The TGI [26] was over 100 µM, the TGI [27] was over 0.1 mM and the TGI [28] was over 100 µM. It also gave a TGI [29] of over 0.1 mM, a TGI [31] of over 0.1 mM and a TGI [32] of over 0.1 mM. It also gave a TGI [33] of over 100 µM, a TGI [34] of over 100 µM and a TGI [35] of over 0.1 mM. For the same molecule, the TGI [38] was over 100 µM, the TGI [41] was over 100 µM and the TGI [42] was over 100 µM. For the same molecule, the TGI [43] was over 100 µM, the TGI [46] was over 100 µM and the TGI [50] was over 100 µM. For the same molecule, the TGI [51] was over 100 µM, the TGI [52] was over 100 µM and the TGI [54] was over 100 µM. The TGI [55] was over 0.1 mM, the TGI [57] was over 100 µM and the TGI [58] was over 0.1 mM. The TGI [59] was over 100 µM, the TGI [60] was over 100 µM and the TGI [61] was over 100 µM. The TGI [62] was over 100 µM, the TGI [72] was over 100 µM and the TGI [63] was over 0.1 mM. For the same molecule, the TGI [68] was over 100 µM, the TGI [69] was over 100 µM and the TGI [70] was over 0.1 mM.
In the case of `COc1ccc2cc1Oc1ccc(cc1)C[C@@H]1c3cc(c(OC)cc3CCN1C)Oc1c(OC)c(OC)cc3c1[C@@H](C2)N(C)CC3`, the TGI [3] was 52.4 µM, the TGI [4] was 9.77 µM and the TGI [7] was 30.7 µM. For the same molecule, the TGI [8] was 33.7 µM, the TGI [9] was 8.77 µM and the TGI [16] was 34.8 µM. For the same molecule, the TGI [17] was 32.7 µM, the TGI [20] was 26.9 µM and the TGI [21] was 0.0325 mM. It also gave a TGI [22] of 0.0399 mM, a TGI [23] of 35 µM and a TGI [24] of 35.8 µM. The TGI [25] was 31.6 µM, the TGI [26] was 28.2 µM and the TGI [28] was 43.3 µM. It also gave a TGI [33] of 30 µM, a TGI [34] of 28.1 µM and a TGI [38] of 35.3 µM. The TGI [41] was 33.5 µM, the TGI [42] was 71.6 µM and the TGI [43] was 23.7 µM. The TGI [45] was 21.3 µM, the TGI [46] was 27.3 µM and the TGI [50] was 23 µM. It also gave a TGI [51] of 31.3 µM, a TGI [52] of 13 µM and a TGI [53] of 41.2 µM. The TGI [54] was 39.9 µM, the TGI [57] was 33.8 µM and the TGI [59] was 19.3 µM. It also gave a TGI [60] of 33.8 µM, a TGI [61] of 4.01 µM and a TGI [62] of 30.8 µM. For the same molecule, the TGI [72] was 30 µM, the TGI [66] was 0.03 mM and the TGI [68] was 26 µM. For the same molecule, the TGI [69] was 40.8 µM.

Reference: PubChem BioAssay (NCI)
